According to patent US11639940B2, “Method for determining sensitivity of cyclin-dependent kinase 4/6 inhibitor” (SYSMEX CORPORATION, priority 2019, dated 2023):
Read-outs that look alike come from different tables or passages of the source.

What was measured:
[1] = tested on: CDK4; details: 48 h
Experimental: After 48 hours, cells were recovered. A cell solubilization buffer was added to a cell pellet to be 5×10^7 cells/mL to lyse the cells, and the supernatant was recovered by centrifugation to obtain a cell lysate (hereinafter also referred to as a “lysate sample”).
The expression levels of CDK2, CDK4 and CDK6 were measured by Western blot as follows. Samples for electrophoresis (1 mg/mL lysate sample, 2×sample buffer and 10% 2-mercaptoethanol) were prepared from each lysate sample obtained in the above (2). Each of samples for electrophoresis (10 μL/lane) was electrophoresed on a polyacrylamide gel. To quantitatively analyze the expression levels, recombinant CDK proteins (rCDK2, rCDK4 and rCDK6) were electrophoresed at 5.0 ng, 2.5 ng, 1.0 ng, 0.75 ng, 0.5 ng and 0.2 ng as standard proteins. The gel after electrophoresis was transferred to a membrane by a conventional method, and a primary reaction was performed using an anti-CDK2 antibody, an anti-CDK4 antibody, and an anti-CDK6 antibody. Then, a secondary reaction was performed using an HRP-labeled antibody, and further reacted with SuperSignal West Femto Substrate (Thermo Fisher), and a chemiluminescent signal was detected with an X-ray film. The blot was quantitatively analyzed by Image Lab 5.2.1 (Bio Rad) to calculate the expression levels (nmol/L) of CDK2, CDK4 and CDK6 in each lysate sample.

[2] = tested on: breast cancer cell lines; test: cytotoxicity test using WST-8, summary over the cell lines; assay type: cell-based
From the text: (§1) Six types of breast cancer cell lines, T47D, MCF7, HCC1500, CAMA-1, DU4475 and MDA-MB-231, were used. T47D, MCF7, HCC1500 and CAMA-1 are HER2-negative/ER-positive breast cancer cell lines, and DU4475 and MDA-MB-231 are cell lines derived from triple negative breast cancer (TNBC). […] In the analysis, the survival rate of the untreated cell line was set to 100%.

[3] = tested on: CDK2; test: CDK activity (phosphorylated substrate peptide, HISCL ELISA) in lysate of treated breast cancer cell lines; assay type: cell-based; design: CDK2 Activity: unit not given here; details: 48 h; for CDK2 Specific activity: activity/expression level
Experimental: After 48 hours, cells were recovered. […] Specifically, it was performed as follows. […] The composition of the substrate solution was as follows. […] The measurement was performed by Automated Immunoassay System […] Corporation). This measurement is based on ELISA on magnetic particles.

[4] = tested on: CAMA-1; test: cytotoxicity test using WST-8 (number of viable cells); assay type: cell-based; details: Homo sapiens, CAMA-1, 48 hours
Experimental: as §1, with “100%. The IC50 value was calculated from the normalized data by performing curve fitting using KaleidaGraph 4.0.” for “100%.”

[5] = tested on: HCC1500; test: as above; assay type: cell-based; details: HCC1500, 48 hours
From the text: as §1

[6] = tested on: T47D; test: as above; assay type: cell-based; details: Homo sapiens, 48 hours
From the text: as §1

[7] = tested on: MDA-MB-231; test: as above; assay type: cell-based; details: Homo sapiens, MDA-MB-231, 48 hours
From the text: as §1

[8] = tested on: DU4475; test: as above; assay type: cell-based; details: Homo sapiens, DU-4475, 48 h, DU4475, 48 hours
From the text: as §1

[9] = tested on: MCF7; test: as above; assay type: cell-based; details: Homo sapiens, MCF7, 48 hours
From the text: as §1

[10] = tested on: CDK2; test: expression level by Western blot in lysate of treated breast cancer cell lines; assay type: cell-based; details: 48 h
Experimental: (§2) After 48 hours, cells were recovered.
(§3) To quantitatively analyze the expression levels, recombinant CDK proteins (rCDK2, rCDK4 and rCDK6) were electrophoresed at 5.0 ng, 2.5 ng, 1.0 ng, 0.75 ng, 0.5 ng and 0.2 ng as standard proteins.

[11] = tested on: CDK6; test: as above; assay type: cell-based; details: 48 h
Experimental: as §2, §3

For `CC(=O)c1c(C)c2cnc(Nc3ccc(N4CCNCC4)cn3)nc2n(C2CCCC2)c1=O` [palbociclib], the “Expression level CDK4” value ([1]; CAMA-1, palbociclib 426 nM) was 18.9 nmol/L, the “Expression level CDK4” value ([1]; DU4475, palbociclib 426 nM) was 16.6 nmol/L and the “Expression level CDK4” value ([1]; HCC1500, palbociclib 426 nM) was 12.7 nmol/L. The “Expression level CDK4” value ([1]; MCF7, palbociclib 426 nM) was 39.4 nmol/L, the “Expression level CDK4” value ([1]; MDA-MB-231, palbociclib 426 nM) was 20.7 nmol/L and the “Expression level CDK4” value ([1]; T47D, palbociclib 426 nM) was 18.8 nmol/L. The IC50 ([2]; average over the breast cancer cell lines, read-out: IC50 Average) was 1540 nM, the IC50 ([2]; median over the breast cancer cell lines, read-out: IC50 Median) was 767 nM and the “CDK2 Activity” value ([3]; CAMA-1, palbociclib 426 nM) was 0.7. The “CDK2 Specific activity” value ([3]; CAMA-1, palbociclib 426 nM) was 0.25, the “CDK2 Activity” value ([3]; DU4475, palbociclib 426 nM) was 14.5 and the “CDK2 Specific activity” value ([3]; DU4475, palbociclib 426 nM) was 1.17. The “CDK2 Activity” value ([3]; HCC1500, palbociclib 426 nM) was 0.7, the “CDK2 Specific activity” value ([3]; HCC1500, palbociclib 426 nM) was 0.25 and the “CDK2 Activity” value ([3]; MCF7, palbociclib 426 nM) was 1.6. The “CDK2 Specific activity” value ([3]; MCF7, palbociclib 426 nM) was 0.53, the “CDK2 Activity” value ([3]; MDA-MB-231, palbociclib 426 nM) was 0.7 and the “CDK2 Specific activity” value ([3]; MDA-MB-231, palbociclib 426 nM) was 0.24. For the same molecule, the “CDK2 Activity” value ([3]; T47D, palbociclib 426 nM) was 2.1, the “CDK2 Specific activity” value ([3]; T47D, palbociclib 426 nM) was 0.36 and the IC50 [4] was 888 nM. The IC50 [5] was 5360 nM, the IC50 [6] was 202 nM and the IC50 [7] was 475 nM. For the same molecule, the IC50 [8] was greater than 10000 nM, the IC50 [9] was 767 nM and the “Expression level CDK2” value ([10]; CAMA-1, palbociclib 426 nM) was 2.8 nmol/L. The “Expression level CDK2” value ([10]; DU4475, palbociclib 426 nM) was 12.3 nmol/L, the “Expression level CDK2” value ([10]; HCC1500, palbociclib 426 nM) was 2.9 nmol/L and the “Expression level CDK2” value ([10]; MCF7, palbociclib 426 nM) was 3.0 nmol/L. For the same molecule, the “Expression level CDK2” value ([10]; MDA-MB-231, palbociclib 426 nM) was 3.0 nmol/L, the “Expression level CDK2” value ([10]; T47D, palbociclib 426 nM) was 5.7 nmol/L and the “Expression level CDK6” value ([11]; CAMA-1, palbociclib 426 nM) was 0.4 nmol/L. For the same molecule, the “Expression level CDK6” value ([11]; DU4475, palbociclib 426 nM) was 60.9 nmol/L, the “Expression level CDK6” value ([11]; HCC1500, palbociclib 426 nM) was 0.4 nmol/L and the “Expression level CDK6” value ([11]; MCF7, palbociclib 426 nM) was 4.3 nmol/L. For the same molecule, the “Expression level CDK6” value ([11]; MDA-MB-231, palbociclib 426 nM) was 20.1 nmol/L.
